Test results from patent US10611740B2, “Aryl dihydro-2H-benzo[b][1,4]oxazine sulfonamide and related compounds for use as agonists of RORγ and the treatment of disease” (Lycera Corporation, priority 2015, dated 2020).

Columns and labels:
[1] = target: T1, RORγ-LBD (Homo sapiens, UniProt P51449); assay: RORγ-Ligand Binding Domain (LBD) TR-FRET Assay; type: biochemical;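 on TR-FRET Assay Max Response: 665/615 nm ratio relative to signal without ursolic acid or compound set at 100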
T1 construct: made in house; host or cells: SF9 cells (baculovirus)
T1 sequence (P51449 269-508 limits assumed): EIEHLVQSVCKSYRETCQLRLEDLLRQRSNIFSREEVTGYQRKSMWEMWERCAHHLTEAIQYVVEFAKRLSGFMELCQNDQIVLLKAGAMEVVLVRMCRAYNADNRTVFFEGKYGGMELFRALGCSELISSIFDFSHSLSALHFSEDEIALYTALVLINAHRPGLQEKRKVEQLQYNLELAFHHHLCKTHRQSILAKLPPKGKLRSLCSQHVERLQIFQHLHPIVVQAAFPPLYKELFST
In short: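 TR-FRET read-out using a biotin-tagged SRC1 coactivator LXXLL peptide (200 nM final), with the antagonist ursolic acid present at 2 μM final. Receptor is His-tagged LBD expressed in SF9 cells, ~3 nM final in pH 7.0 Tris/KCl/EDTA/DTT/BSA buffer; compounds in 1% DMSO final.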

[2] = target: T2, Gal4-RORγ-LBD (Homo sapiens, UniProt P51449); assay: Gal4-RORγ Luciferase Reporter Assay in HEK-293T Cells; type: cell-based; details: HEK-293 cells, luciferase reporter, with 2 μM ursolic acid
T2 construct: expressed in transfected cells; host or cells: HEK-293 cells (pcDNA3.1neo plasmid)
T2 sequence (P51449 269-508 limits assumed): T1 sequence (P51449 269-508 limits assumed)
In short: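 Luminescence read-out (One-Glo, 10 min RT) after overnight compound exposure at 37 °C in HEK-293 cells carrying Gal4-RORγ-LBD plus a Gal4-luciferase reporter, in the presence of 2 μM ursolic acid. Max Response is the upper plateau from a 4-parameter logistic fit, normalized to untreated signal = 100.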

Row | Compound | EC50 [1] [µM] | EC50 [2] [µM] | TR-FRET Assay Max Response [1] | Gal4-RORγ Assay Max Response [2]
1 | O=C(NC[C@H]1CN(S(=O)(=O)c2cccc(C(F)(F)F)c2)c2cc(-c3cc(F)ccc3F)ccc2O1)c1cn[nH]c1 [Compound 30AC, (S)-N-((6-(2,5-difluorophenyl)-4-((3-(trifluoromethyl)phenyl)-sulfonyl)-3,4-dihydro-2H-benzo[b][1,4]oxazin-2-yl)methyl)-1H-pyrazole-4-carboxamide] | < 0.5 | 0.5 to 5 | **** (The symbol “****” indicates a value greater than 200) | * (The symbol “*” indicates a value in the range of 25 to 90)
2 | O=C(NC[C@H]1CN(S(=O)(=O)c2cccc(C(F)(F)F)c2)c2cc(-c3cc(F)ccc3F)ccc2O1)c1cc[nH]n1 [Compound 30AD, (S)-N-((6-(2,5-difluorophenyl)-4-((3-(trifluoromethyl)phenyl)-sulfonyl)-3,4-dihydro-2H-benzo[b][1,4]oxazin-2-yl)methyl)-1H-pyrazole-3-carboxamide] | < 0.5 | < 0.5 | **** (The symbol “****” indicates a value greater than 200) | * (The symbol “*” indicates a value in the range of 25 to 90)
3 | C[C@H](O)C(=O)NC[C@H]1CN(S(=O)(=O)c2cccc(C(F)(F)F)c2)c2cc(-c3cc(F)ccc3F)ccc2O1 [Compound 30AE, (S)-N-(((S)-6-(2,5-difluoro-phenyl)-4-((3-(trifluoromethyl)-phenyl)sulfonyl)-3,4-dihydro-2H-benzo[b][1,4]oxazin-2-yl)-methyl)-2-hydroxypropanamide] | < 0.5 | < 0.5 | *** (The symbol “***” indicates a value in the range of greater than 150 to 200) | ** (The symbol “**” indicates a value in the range of greater than 90 to 150)
4 | C[C@@H](O)C(=O)NC[C@H]1CN(S(=O)(=O)c2cccc(C(F)(F)F)c2)c2cc(-c3cc(F)ccc3F)ccc2O1 [Compound 30AF, (R)-N-(((S)-6-(2,5-difluoro-phenyl)-4-((3-(trifluoromethyl)-phenyl)sulfonyl)-3,4-dihydro-2H-benzo[b][1,4]oxazin-2-yl)-methyl)-2-hydroxypropanamide] | < 0.5 | < 0.5 | *** (The symbol “***” indicates a value in the range of greater than 150 to 200) | ** (The symbol “**” indicates a value in the range of greater than 90 to 150)
5 | O=C(NC[C@H]1CN(S(=O)(=O)c2cccc(C(F)(F)F)c2)c2cc(-c3cc(F)ccc3F)ccc2O1)C1(O)CC1 [Compound 30AG, (S)-N-((6-(2,5-difluorophenyl)-4-((3-(trifluoromethyl)phenyl)-sulfonyl)-3,4-dihydro-2H-benzo[b][1,4]oxazin-2-yl)methyl)-1-hydroxycyclo-propane-1-carboxamide] | < 0.5 | < 0.5 | *** (The symbol “***” indicates a value in the range of greater than 150 to 200) | ** (The symbol “**” indicates a value in the range of greater than 90 to 150)
6 | Cn1cc(C(=O)NC[C@H]2CN(S(=O)(=O)c3cccc(C(F)(F)F)c3)c3cc(-c4cc(F)ccc4F)ccc3O2)cn1 [Compound 30AH, (S)-N-((6-(2,5-difluorophenyl)-4-((3-(trifluoromethyl)phenyl)-sulfonyl)-3,4-dihydro-2H-benzo[b][1,4]oxazin-2-yl)methyl)-1-methyl-1H-pyrazole-4-carboxamide] | < 0.5 | < 0.5 | *** (The symbol “***” indicates a value in the range of greater than 150 to 200) | ** (The symbol “**” indicates a value in the range of greater than 90 to 150)
7 | Cn1ccc(C(=O)NC[C@H]2CN(S(=O)(=O)c3cccc(C(F)(F)F)c3)c3cc(-c4cc(F)ccc4F)ccc3O2)n1 [Compound 30AI, (S)-N-((6-(2,5-difluorophenyl)-4-((3-(trifluoromethyl)phenyl)-sulfonyl)-3,4-dihydro-2H-benzo[b][1,4]oxazin-2-yl)methyl)-1-methyl-1H-pyrazole-3-carboxamide] | < 0.5 | < 0.5 | *** (The symbol “***” indicates a value in the range of greater than 150 to 200) | ** (The symbol “**” indicates a value in the range of greater than 90 to 150)
8 | O=C(NC[C@H]1CN(S(=O)(=O)c2cccc(C(F)(F)F)c2)c2cc(-c3cc(F)ccc3F)ccc2O1)c1cocn1 [Compound 30AJ, (S)-N-((6-(2,5-difluorophenyl)-4-((3-(trifluoromethyl)phenyl)-sulfonyl)-3,4-dihydro-2H-benzo[b][1,4]oxazin-2-yl)methyl)oxazole-4-carboxamide] | < 0.5 | < 0.5 | **** (The symbol “****” indicates a value greater than 200) | ** (The symbol “**” indicates a value in the range of greater than 90 to 150)

Continued, in another order:

Row | EC50 [1] [µM] | EC50 [2] [µM] | Compound | TR-FRET Assay Max Response [1] | Gal4-RORγ Assay Max Response [2]
9 | < 0.5 | 0.5 to 5 | O=C(NC[C@H]1CN(S(=O)(=O)c2cccc(C(F)(F)F)c2)c2cc(-c3cc(F)ccc3F)ccc2O1)c1cnco1 [Compound 30AK, (S)-N-((6-(2,5-difluorophenyl)-4-((3-(trifluoromethyl)phenyl)-sulfonyl)-3,4-dihydro-2H-benzo[b][1,4]oxazin-2-yl)methyl)oxazole-5-carboxamide] | **** (The symbol “****” indicates a value greater than 200) | ** (The symbol “**” indicates a value in the range of greater than 90 to 150)
10 | < 0.5 | < 0.5 | NS(=O)(=O)CCC(=O)NC[C@H]1CN(S(=O)(=O)c2cccc(C(F)(F)F)c2)c2cc(-c3cc(F)ccc3F)ccc2O1 [Compound 30AL, (S)-N-((6-(2,5-difluorophenyl)-4-((3-(trifluoromethyl)phenyl)-sulfonyl)-3,4-dihydro-2H-benzo[b][1,4]oxazin-2-yl)methyl)-3-sulfamoyl-propanamide] | **** (The symbol “****” indicates a value greater than 200) | * (The symbol “*” indicates a value in the range of 25 to 90)
11 | < 0.5 | < 0.5 | O=C(NC[C@H]1CN(S(=O)(=O)c2cccc(C(F)(F)F)c2)c2cc(-c3cc(F)ccc3F)ccc2O1)[C@@H]1C[C@@H]1F [Compound 30AM, (1S,2S)-N-(((S)-6-(2,5-difluoro-phenyl)-4-((3-(trifluoromethyl)-phenyl)sulfonyl)-3,4-dihydro-2H-benzo[b][1,4]oxazin-2-yl)methyl)-2-fluorocyclo-propane-1-carboxamide] | **** (The symbol “****” indicates a value greater than 200) | ** (The symbol “**” indicates a value in the range of greater than 90 to 150)
12 | < 0.5 | < 0.5 | O=C(NC[C@H]1CN(S(=O)(=O)c2cccc(C(F)(F)F)c2)c2cc(-c3cc(F)ccc3F)ccc2O1)[C@H]1C[C@H]1F [Compound 30AN, (1R,2R)-N-(((S)-6-(2,5-difluoro-phenyl)-4-((3-(trifluoromethyl)-phenyl)sulfonyl)-3,4-dihydro-2H-benzo[b][1,4]oxazin-2-yl)methyl)-2-fluorocyclo-propane-1-carboxamide] | **** (The symbol “****” indicates a value greater than 200) | ** (The symbol “**” indicates a value in the range of greater than 90 to 150)
13 | < 0.5 | < 0.5 | CC(C)(C)C(=O)NC[C@H]1CN(S(=O)(=O)c2cccc(C(F)(F)F)c2)c2cc(-c3cc(F)ccc3F)ccc2O1 [Compound 30AO, (S)-N-((6-(2,5-difluorophenyl)-4-((3-(trifluoromethyl)phenyl)-sulfonyl)-3,4-dihydro-2H-benzo[b][1,4]oxazin-2-yl)methyl)pivalamide] | **** (The symbol “****” indicates a value greater than 200) | * (The symbol “*” indicates a value in the range of 25 to 90)
14 | < 0.5 | < 0.5 | N#CCC(=O)NC[C@H]1CN(S(=O)(=O)c2cccc(C(F)(F)F)c2)c2cc(-c3cc(F)ccc3F)ccc2O1 [Compound 30AP, (S)-2-cyano-N-((6-(2,5-difluoro-phenyl)-4-((3-(trifluoromethyl)-phenyl)sulfonyl)-3,4-dihydro-2H-benzo[b][1,4]oxazin-2-yl)methyl)acetamide] | *** (The symbol “***” indicates a value in the range of greater than 150 to 200) | * (The symbol “*” indicates a value in the range of 25 to 90)
15 | < 0.5 | < 0.5 | CC(C)(C#N)C(=O)NC[C@H]1CN(S(=O)(=O)c2cccc(C(F)(F)F)c2)c2cc(-c3cc(F)ccc3F)ccc2O1 [Compound 30AQ, (S)-2-cyano-N-((6-(2,5-difluoro-phenyl)-4-((3-(trifluoromethyl)-phenyl)sulfonyl)-3,4-dihydro-2H-benzo[b][1,4]oxazin-2-yl)methyl)-2-methylpropanamide] | *** (The symbol “***” indicates a value in the range of greater than 150 to 200) | * (The symbol “*” indicates a value in the range of 25 to 90)
